Laboratory results as given in US9212168B2 (priority 2011, dated 2015).

Experiments:
HCV genotype 1a replicon = HCV genotype 1a replicon assay (NS3 protease activity readout); format: cell-based, hepatitis C virus; details: for Genotype 1a: HCV genotype 1a replicon; for EC50: Hepatitis C virus, read-out: Genotype 1a, HCV genotype 1a replicon
In short: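 EC50 values came from a 4-parameter robust fit of fluorescence (ex 340, em 509 nm) produced by NS3-specific protease in lysates, assayed with 15 μM FRET substrate for 20 min at 37° C, after 48 or 72 hours of compound exposure (0.5% DMSO) of Huh7.5-derived APC89 genotype 1a replicon cells.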

HCV genotype 1b replicon = HCV genotype 1b replicon assay (Renilla luciferase readout); format: cell-based, hepatitis C virus; details: for Genotype 1b: HCV genotype 1b replicon; for EC50: Hepatitis C virus, read-out: Genotype 1b
Source text: Assay 1: HCV Genotype 1b Replicon Assay
The HCV genotype 1b replicon cell line was obtained from Apath LLC (Brooklyn, N.Y.) (APC144; Huh7 cell background). This subgenomic replicon contains the N-terminus of the HCV core protein fused to the neomycin-resistance selectable marker. The EMCV IRES lies downstream and drives expression of humanized Renilla luciferase fused to the non-structural proteins NS3-NS5B. This cell line was used to determine compound potency using the luciferase activity readout as a measurement of compound inhibition of replicon levels.
Cells were grown at 37° C. in a 5% CO2 humidified incubator in DMEM (Invitrogen) with 10% FBS (HyClone), 1×NEAA (Invitrogen), 1× Pen-Strep (Invitrogen), and 500 μg/mL G418 (Invitrogen). On day 1 of the assay, cells were plated at 10,000 cells/well in white 96-well tissue culture plates (Costar) in 200 μL media lacking G418. Four hours later, once the cells have adhered, the media was removed and replaced with media (no G418) containing dose-responses of test compounds. Compounds were initially diluted in DMSO and then diluted another 200× in media to bring the final DMSO concentration down to 0.5%. The cells were incubated with test compounds for 48 hours. At the end of the incubation period, media and compound were removed from the plates and the luciferase activity was determined using Promega Renilla-Glo reagents.
To analyze the data, the luciferase activity was plotted vs. the compound concentration, and EC50 values were determined from a 4-parameter robust fit model with the GraphPad Prism software package (GraphPad Software, Inc., San Diego, Calif.). Results are expressed as the negative decadic logarithm of the EC50 value, pEC50.
Test compounds having a higher pEC50 value in this assay show greater inhibition of HCV genotype 1b replication.

Row | Structure (SMILES) | Genotype 1a (HCV genotype 1a replicon) | Genotype 1b (HCV genotype 1b replicon) | EC50 (HCV genotype 1a replicon) [pM] | EC50 (HCV genotype 1b replicon) [pM]
1 | COC(=O)N[C@H](C(=O)N1C[C@@H](C)C[C@H]1c1nc(-c2ccc(-c3ccc(C(=O)Nc4ccc(N5C[C@H](C)N(C(=O)C6CC6)C[C@H]5C)nc4)cc3OC(F)(F)F)cc2)c[nH]1)C(C)C [Example 4-16] | C (C represents pEC50 between and 9 and about 10, (EC50 between 1 nM and 0.1 nM)) | D (D represents pEC50>10 (EC50<0.1 nM)) |  | 
2 | COC(=O)N[C@H](C(=O)N1[C@@H](C)CC[C@H]1c1nc(-c2ccc(-c3cc(Cl)c(NC(=O)c4ccc(N5CCN(C(=O)C(C)(C)C)C[C@H]5C)nc4)cc3C(F)(F)F)cc2)c[nH]1)C(C)C [Example 17-2] | D (D represents pEC50>10 (EC50<0.1 nM)) | D (D represents pEC50>10 (EC50<0.1 nM)) |  | 
3 | COC(=O)NC(C(=O)N1CC(C)CC1c1nc(-c2ccc(-c3ccc(NC(=O)c4ccc(N5CCN(C(=O)C(C)(C)CO)CC5C)nc4)cc3OC(F)(F)F)cc2)c[nH]1)C(C)C (centres unmarked) [Example 13-29] | D (D represents pEC50>10 (EC50<0.1 nM)) | D (D represents pEC50>10 (EC50<0.1 nM)) |  | 
4 | COC(=O)N[C@H](C(=O)N1C[C@@H](O)C[C@H]1c1nc(-c2ccc(-c3ccc(NC(=O)c4ccc(N5CCN(C(=O)[C@]6(C)CCCN6C(=O)OC)C[C@H]5C)nc4)cc3)cc2)c[nH]1)C(C)C [Example 5] |  |  | 100 to 1000 | < 100
5 | COC(=O)N[C@H](C(=O)N1C[C@@H](OC)C[C@H]1c1nc(-c2ccc(-c3cc(F)c(NC(=O)c4ccc(N5CCN(C(=O)C(C)(C)C)C[C@H]5C)nc4)cc3OC(F)(F)F)cc2)c[nH]1)C1CCOCC1 [Example 28-1] | D (D represents pEC50>10 (EC50<0.1 nM)) | D (D represents pEC50>10 (EC50<0.1 nM)) |  | 
6 | COC(=O)NC(C(=O)N1CC(OC)CC1c1nc(-c2ccc(-c3cc(Cl)c(NC(=O)c4ccc(N5CCN(C(=O)C(C)(C)C)CC5C)nc4)cc3OC(F)(F)F)cc2)c[nH]1)C(C)OC (centres unmarked) [Example 16-3] | D (D represents pEC50>10 (EC50<0.1 nM)) | D (D represents pEC50>10 (EC50<0.1 nM)) |  | 
7 | COC(=O)N[C@H](C(=O)N1C[C@@H](OC)C[C@H]1c1nc(-c2ccc(-c3cc(Cl)c(NC(=O)c4ccc(N5CCN(C(=O)[C@]67C[C@H]6CCN7)C[C@H]5C)nc4)cc3OC(F)(F)F)cc2)c[nH]1)C(C)C [Example 27-5] | D (D represents pEC50>10 (EC50<0.1 nM)) | D (D represents pEC50>10 (EC50<0.1 nM)) |  | 
8 | COCC(=O)N1CCC[C@@]1(C)C(=O)N1C[C@@H](C)N(c2ccc(NC(=O)c3ccc(-c4ccc(-c5c[nH]c([C@@H]6C[C@H](C)CN6C(=O)[C@@H](NC(=O)OC)C(C)C)n5)cc4)c(OC(F)(F)F)c3)cn2)C[C@@H]1C [Example 4-8] | D (D represents pEC50>10 (EC50<0.1 nM)) | D (D represents pEC50>10 (EC50<0.1 nM)) |  | 
9 | COC(=O)N[C@H](C(=O)N1C[C@@H](C)C[C@H]1c1nc(-c2ccc(-c3cc(Cl)c(NC(=O)c4ccc(N5C[C@H](C)N(C(=O)[C@H]6CC6(C)C)C[C@H]5C)nc4)cc3OC(F)(F)F)cc2)c[nH]1)C(C)C [Example 1-20] | D (D represents pEC50>10 (EC50<0.1 nM)) | D (D represents pEC50>10 (EC50<0.1 nM)) |  | 
10 | COC(=O)N[C@H](C(=O)N1C[C@@H](N(C)C)C[C@H]1c1nc(-c2ccc(-c3ccc(NC(=O)c4ccc(N5CCN(C(=O)C6CC6)C[C@H]5C)nc4)cc3)cc2)c[nH]1)C(C)C [Example 6, ((S)-1-{(2S,4S)-2-[4-(4′-{[6-((R)-4-Cyclopropanecarbonyl-2-methyl-piperazin-1-yl)-pyridine-3-carbonyl]-amino}-biphenyl-4-yl)-1H-imidazol-2-yl]-4-dimethylamino-pyrrolidine-1-carbonyl}-2-methyl-propyl)-carbamic acid methyl ester] |  |  | 100 to 1000 | < 100
11 | COC(=O)NC(C(=O)N1C[C@@H](C)C[C@H]1c1nc(-c2ccc(-c3c(F)cc(NC(=O)c4ccc(N5CCN(C(=O)C(C)(C)C)C[C@H]5C)nc4)cc3F)cc2)c[nH]1)C1CCOCC1 (some centres unmarked) [Example 21-3] |  |  | < 100 | < 100
12 | COC(=O)N[C@H](C(=O)N1C[C@@H](C)C[C@H]1c1nc(-c2ccc(-c3cc(Cl)c(NC(=O)c4ccc(N5CCN(C(=O)C(C)(C)C)C[C@H]5C)nc4)cc3OC(F)(F)F)cc2)c(F)[nH]1)C(C)C [Example 5-8] |  |  | < 100 | < 100
13 | COC(=O)NC(C(=O)N1CC(OC)CC1c1nc(-c2ccc(-c3cc(F)c(NC(=O)c4ccc(N5CCN(C(=O)C(C)(C)CO)CC5C)nc4)cc3OC(F)(F)F)cc2)c[nH]1)C(C)(C)O (centres unmarked) [Example 16-14] | D (D represents pEC50>10 (EC50<0.1 nM)) | D (D represents pEC50>10 (EC50<0.1 nM)) |  | 
14 | C[C@H]1C[C@@H](c2nc(-c3ccc(-c4cc(Cl)c(NC(=O)c5ccc(N6CCN(C(=O)C(C)(C)C)C[C@H]6C)nc5)cc4OC(F)(F)F)cc3)c[nH]2)N(C(=O)[C@@H](c2ccccc2)N2CCCCC2)C1 [Example 13-1] |  |  | < 100 | < 100
15 | CNC(=O)N1C[C@@H](C)N(c2ccc(C(=O)Nc3cc(C(F)(F)F)c(-c4ccc(-c5c[nH]c([C@@H]6C[C@H](C)CN6C(=O)[C@@H](NC(=O)OC)C(C)C)n5)cc4)cc3Cl)cn2)C[C@@H]1C [Example 1-12] | D (D represents pEC50>10 (EC50<0.1 nM)) | D (D represents pEC50>10 (EC50<0.1 nM)) |  | 
16 | COC(=O)NC(C(=O)N1C[C@@H](C)C[C@H]1c1nc(-c2ccc(-c3cc(Cl)c(NC(=O)c4ccc(N5CCN(C(=O)C(C)(C)C)C[C@H]5C)nc4)cc3OC(F)(F)F)cc2)c[nH]1)C1CCC(=O)CC1 (some centres unmarked) [Example 13-35] |  |  | < 100 | < 100
17 | COC(=O)N[C@H](C(=O)N1C[C@@H](C)C[C@H]1c1nc(-c2ccc(-c3cc(F)c(NC(=O)c4ccc(N5CCN(C(=O)C(C)(C)C)C[C@H]5C)nc4)cc3OC(F)(F)F)cc2)c[nH]1)C(C)(C)O [Example 13-24] |  |  | < 100 | < 100
18 | COC(=O)N[C@H](C(=O)N1C[C@@H](C)C[C@H]1c1nc(-c2ccc(-c3cc(F)c(NC(=O)c4ccc(N5CCN(C(=O)C(C)(C)C)C[C@H]5C)nc4)cc3F)cc2)c[nH]1)C(C)C [Example 1-82] | C (C represents pEC50 between and 9 and about 10, (EC50 between 1 nM and 0.1 nM)) | D (D represents pEC50>10 (EC50<0.1 nM)) |  | 
19 | COC(=O)NC(C(=O)N1CC(C)CC1c1nc(-c2ccc(-c3cc(F)c(NC(=O)c4ccc(N5CCN(C(=O)C6CC6(F)F)CC5C)nc4)cc3C(F)(F)F)cc2)c[nH]1)C(C)C (mixture of isomers) [Example 1-53] | D (D represents pEC50>10 (EC50<0.1 nM)) | D (D represents pEC50>10 (EC50<0.1 nM)) |  | 
20 | COC(=O)NC(C(=O)N1CC(C)CC1c1nc(-c2ccc(-c3cc(Cl)c(NC(=O)c4ccc(N5CCN(C(=O)C(C)(C)C)CC5C)nc4)cc3C(F)(F)F)cc2)c[nH]1)C1CC(C)OC(C)C1 (centres unmarked) [Example 19-9] | D (D represents pEC50>10 (EC50<0.1 nM)) | D (D represents pEC50>10 (EC50<0.1 nM)) |  | 
21 | COC(=O)N[C@H](C(=O)N1C[C@@H](C)C[C@H]1c1nc(-c2ccc(-c3cc(F)c(NC(=O)c4ccc(N5CCN(C(=O)[C@H]6CC6(C)C)C[C@H]5C)nc4)cc3OC(F)(F)F)cc2)c[nH]1)C(C)C [Example 1-10] | D (D represents pEC50>10 (EC50<0.1 nM)) | D (D represents pEC50>10 (EC50<0.1 nM)) |  | 
22 | COC(=O)N[C@H](C(=O)N1C[C@@H](OC)C[C@H]1c1nc(-c2ccc(-c3cc(Cl)c(NC(=O)c4ccc(N5CCN(C(=O)C(C)(C)C)C[C@H]5C)nc4)cc3OC(F)(F)F)cc2)c[nH]1)C(C)(C)O [Example 16-1] | D (D represents pEC50>10 (EC50<0.1 nM)) | D (D represents pEC50>10 (EC50<0.1 nM)) |  | 
23 | COC(=O)N[C@H](C(=O)N1C[C@@H](O)C[C@H]1c1nc(-c2ccc(-c3ccc(NC(=O)c4ccc(N5CCN(C(=O)[C@H]6CC6(C)C)C[C@H]5C)nc4)cc3)cc2)c[nH]1)C(C)C [Example 26-4] | C (C represents pEC50 between and 9 and about 10, (EC50 between 1 nM and 0.1 nM)) | D (D represents pEC50>10 (EC50<0.1 nM)) |  | 
24 | COC(=O)NC(C(=O)N1CC(OC)CC1c1nc(-c2ccc(-c3ccc(NC(=O)c4ccc(N5CCN(C(=O)C(C)(C)CO)CC5C)nc4)cc3OC(F)(F)F)cc2)c[nH]1)C(C)O (centres unmarked) [Example 16-15] | C (C represents pEC50 between and 9 and about 10, (EC50 between 1 nM and 0.1 nM)) | D (D represents pEC50>10 (EC50<0.1 nM)) |  | 
25 | COC(=O)N[C@H](C(=O)N1C[C@@H](C)C[C@H]1c1nc(-c2ccc(-c3cc(Cl)c(C(=O)Nc4ccc(N5CCN(C(=O)C(C)(C)C)[C@H](C)C5)nc4)cc3OC(F)(F)F)cc2)c[nH]1)C1CCOCC1 [24-3] | C (C represents pEC50 between and 9 and about 10, (EC50 between 1 nM and 0.1 nM)) | D (D represents pEC50>10 (EC50<0.1 nM)) |  | 
